Assay results taken from patent EP4707280A1, “1,4-CINEOLE DERIVATIVE AND INTERMEDIATE THEREOF, HERBICIDE CONTAINING SAID DERIVATIVE AS ACTIVE INGREDIENT, METHOD FOR USING HERBICIDE, AND METHOD FOR PREPARING AGROCHEMICAL COMPOSITION” (HOKKO CHEMICAL INDUSTRY CO., LTD., priority 2023, dated 2024).

How the values were obtained:
Format in all cases: in vivo
[1] = system: Echinochloa crus-galli var. formosensis; assay: Test Example 1: herbicidal effect test by soil application in paddy rice; conditions: 120 g active ingredient per 10 ares, applied immediately after sowing, flooded pots, 14 days after application; for pest or weed control at 1200 g/ha: Echinochloa crus-galli, soil, 336 h, read-out: weed inhibition rate
Experimental: Wagner pots with an area of […] were filled with paddy soil, followed by addition of water and incorporation of chemical fertilizer (N:P:K = 16:16:16), after which puddling was performed. After that, seeds of Echinochloa crus-galli var. formosensis, broad-leaved weeds ([…] Monochoria vaginalis), and Scirpus juncoides were sown at a depth of 0 cm to 1 cm, 30 seeds each. Immediately after sowing, the pots were flooded and a water depth of approximately 3 cm was maintained. Subsequent management was conducted in a glass greenhouse. Immediately thereafter, an emulsifiable concentrate prepared according to Formulation Example 5 using the compound shown below was diluted with water, and a specified amount of the diluted solution was applied by dropper. The amount of the active ingredient to be applied was equivalent to 120 g per 10 ares.

[2] = system: Echinochloa crus-galli var. formosensis; assay: Test Example 2: herbicidal effect test by application during growth period of paddy rice; conditions: 120 g per 10 ares, applied seven days after sowing, flooded pots, 14 days after application; for inhibition at 1200 g/ha: Echinochloa crus-galli, read-out: weed inhibition rate
Experimental: (§1) The present test was conducted in duplicate for each chemical concentration group, and the weed inhibition rate (%) was determined 14 days after chemical application using the following formula (Math. 1). [formula]
Wagner pots with an area of […] were filled with paddy soil, followed by addition of water and incorporation of chemical fertilizer (N:P:K = 16:16:16), after which puddling was performed. After that, seeds of Echinochloa crus-galli var. formosensis, broad-leaved weeds (Monochoria vaginalis), and Scirpus juncoides were sown at a depth of 0 cm to 1 cm, 30 seeds each. Immediately after sowing, the pots were flooded and a water depth of approximately 3 cm was maintained. Subsequent management was conducted in a glass greenhouse. Seven days after sowing, an emulsifiable concentrate prepared according to Formulation Example 5 using the compound shown below was diluted with water, and a specified amount of the diluted solution was applied by dropper. The amount of the active ingredient to be applied was equivalent to 120 g per 10 ares. The test was conducted in duplicate for each chemical concentration group, and the herbicidal effect was evaluated 14 days after chemical application using the same criteria as in Test Example 1.

Digitaria ciliaris [3] = assay: Test Example 3: herbicidal effect test by soil application in upland field; conditions: 120 g per 10 ares, sprayed one day after sowing, 14 days after application; for inhibition at 1200 g/ha: Digitaria ciliaris, read-out: weed inhibition rate
Experimental: as §1
(§2) Pots with an area of 36 cm^2 were filled with upland soil (alluvial loam), twenty seeds each of weeds of Digitaria ciliaris, Echinochloa crus-galli, Chenopodium album, and Amaranthus viridis were uniformly mixed with the top 1 cm layer of soil and the surface was lightly pressed down. One day after sowing, an emulsifiable concentrate prepared according to Formulation Example 5 using the compound shown below was diluted with water, and the diluted solution was sprayed onto the soil surface at a rate of 100 liters per 10 ares. The amount of the active ingredient to be applied was equivalent to 120 g per 10 ares. Fourteen days after chemical application, the herbicidal effect was evaluated according to the same criteria as in Test Example 1.

Echinochloa crus-galli [4] = assay: as above; conditions: 120 g per 10 ares, sprayed one day after sowing, 14 days after application; for inhibition at 1200 g/ha: Echinochloa crus-galli, read-out: weed inhibition rate
Experimental: as §1, §2

Digitaria ciliaris [5] = assay: Test Example 4: herbicidal effect test by stem and leaf treatment in upland field; conditions: 120 g per 10 ares, sprayed seven days after sowing, upland soil, 14 days after application; for inhibition at 1200 g/ha: Digitaria ciliaris, read-out: weed inhibition rate
Experimental: as §1
as §2, with “crus-galli,” for “crus-galli, Chenopodium album,”, “Seven days” for “One day”

Echinochloa crus-galli [6] = assay: as above; conditions: 120 g per 10 ares, sprayed seven days after sowing, upland soil, 14 days after application; for inhibition at 1200 g/ha: Echinochloa crus-galli, read-out: weed inhibition rate

Cc1ccc(COC2CC3(C(C)C)OC2(C)CC3Br)cc1 (stereo not drawn) [1-1345, 5-bromo-1-methyl-2-[(4-methylphenyl)methoxy]-4-isopropyl-7-oxabicyclo[2.2.1]heptane]
≥ 80%: pest or weed control at 1200 g/ha [1] | inhibition at 1200 g/ha [2] | inhibition at 1200 g/ha (Digitaria ciliaris [3]) | inhibition at 1200 g/ha (Echinochloa crus-galli [4]) | inhibition at 1200 g/ha (Digitaria ciliaris [5]) | inhibition at 1200 g/ha (Echinochloa crus-galli [6])

COc1ccc(COC2CC3(C(C)C)OC2(C)CC3Br)cc1 (stereo not drawn) [1-1351, 5-bromo-2-[(4-methoxyphenyl)methoxy]-1-methyl-4-isopropyl-7-oxabicyclo[2.2.1]heptane]
≥ 80%: pest or weed control at 1200 g/ha [1] | inhibition at 1200 g/ha [2] | inhibition at 1200 g/ha (Digitaria ciliaris [3]) | inhibition at 1200 g/ha (Echinochloa crus-galli [4]) | inhibition at 1200 g/ha (Digitaria ciliaris [5]) | inhibition at 1200 g/ha (Echinochloa crus-galli [6])

COc1ccccc1CO[C@H]1C[C@@]2(C(C)C)O[C@]1(C)C[C@H]2I [1-1088, (1R,2S,4S,5R)-5-iodo-2-[(2-methoxyphenyl)methoxy]-1-methyl-4-isopropyl-7-oxabicyclo[2.2.1]heptane]
≥ 80%: pest or weed control at 1200 g/ha [1] | inhibition at 1200 g/ha [2] | inhibition at 1200 g/ha (Digitaria ciliaris [3]) | inhibition at 1200 g/ha (Echinochloa crus-galli [4]) | inhibition at 1200 g/ha (Digitaria ciliaris [5]) | inhibition at 1200 g/ha (Echinochloa crus-galli [6])

CC(C)[C@@]12C[C@H](OCc3c(F)cccc3Cl)[C@@](C)(C[C@H]1I)O2 [1-1121, (1R,2S,4S,5R)-2-[(2-chloro-6-fluorophenyl)methoxy]-5-iodo-1-methyl-4-isopropyl-7-oxabicyclo[2.2.1]heptane]
≥ 80%: pest or weed control at 1200 g/ha [1] | inhibition at 1200 g/ha [2] | inhibition at 1200 g/ha (Digitaria ciliaris [3]) | inhibition at 1200 g/ha (Echinochloa crus-galli [4]) | inhibition at 1200 g/ha (Digitaria ciliaris [5]) | inhibition at 1200 g/ha (Echinochloa crus-galli [6])

CC(C)[C@]12C[C@@H](OCc3ccccc3F)[C@](C)(C[C@@H]1OCc1ccccc1)O2 [1-1606, (1S,2R,4R,SS)-2-[(2-fluorophenyl)methoxy]-1-methyl-5-phenylmethoxy-4-isopropyl-7-oxabicyclo[2.2.1]heptane]
≥ 80%: weed inhibition rate [1] | weed inhibition rate [2] | weed inhibition rate (Digitaria ciliaris [3]) | weed inhibition rate (Echinochloa crus-galli [4]) | weed inhibition rate (Digitaria ciliaris [5]) | weed inhibition rate (Echinochloa crus-galli [6])

CC(C)[C@]12C[C@@H](OCc3ccccc3F)[C@](C)(C[C@@H]1OCC(F)(F)F)O2 [1-1605, (1S,2R,4R,5S)-2-[(2-fluorophenyl)methoxy]-1-methyl-4-isopropyl-5-(2,2,2-trifluoroethoxy)-7-oxabicyclo[2.2.1]heptane]
≥ 80%: pest or weed control at 1200 g/ha [1] | inhibition at 1200 g/ha [2] | inhibition at 1200 g/ha (Digitaria ciliaris [3]) | inhibition at 1200 g/ha (Echinochloa crus-galli [4]) | inhibition at 1200 g/ha (Digitaria ciliaris [5]) | inhibition at 1200 g/ha (Echinochloa crus-galli [6])

CC(C)[C@@]12C[C@H](OCc3c(F)cccc3F)[C@@](C)(C[C@H]1Br)O2 [1-1052, (1R,28,48,5R)-5-bromo-2-[(2,6-difluorophenyl)methoxy]-1-methyl-4-isopropyl-7-oxabicyclo[2.2.1]heptane]
≥ 80%: weed inhibition rate [1] | weed inhibition rate [2] | weed inhibition rate (Digitaria ciliaris [3]) | weed inhibition rate (Echinochloa crus-galli [4]) | weed inhibition rate (Digitaria ciliaris [5]) | weed inhibition rate (Echinochloa crus-galli [6])

Cc1cccc(C)c1COC1CC2(C(C)C)OC1(C)CC2Br (stereo not drawn) [1-1599, 5-bromo-2-[(2,6-dimethylphenyl)methoxy]-1-methyl-4-isopropyl-7-oxabicyclo[2.2.1]heptane]
≥ 80%: pest or weed control at 1200 g/ha [1] | inhibition at 1200 g/ha [2] | inhibition at 1200 g/ha (Digitaria ciliaris [3]) | inhibition at 1200 g/ha (Echinochloa crus-galli [4]) | inhibition at 1200 g/ha (Digitaria ciliaris [5]) | inhibition at 1200 g/ha (Echinochloa crus-galli [6])

CC(C)=CCO[C@H]1C[C@@]2(C(C)C)O[C@]1(C)CC2Br (mixture of isomers) [1-1007, (1R,2S,4S,SR)-5-bromo-1-methyl-2-(3-methylbut-2-enoxy)-4-isopropyl-7-oxabicyclo[2.2.1]heptane]
≥ 80%: pest or weed control at 1200 g/ha [1] | inhibition at 1200 g/ha [2] | inhibition at 1200 g/ha (Digitaria ciliaris [3]) | inhibition at 1200 g/ha (Echinochloa crus-galli [4]) | inhibition at 1200 g/ha (Digitaria ciliaris [5]) | inhibition at 1200 g/ha (Echinochloa crus-galli [6])

CC(C)[C@@]12C[C@H](OCc3c(Cl)cccc3Cl)[C@@](C)(C[C@H]1I)O2 [1-1120, (1R,2S,4S,5R)-2-[(2,6-dichlorophenyl)methoxy]-5-iodo-1-methyl-4-isopropyl-7-oxabicyclo[2.2.1]heptane]
≥ 80%: pest or weed control at 1200 g/ha [1] | inhibition at 1200 g/ha [2] | inhibition at 1200 g/ha (Digitaria ciliaris [3]) | inhibition at 1200 g/ha (Echinochloa crus-galli [4]) | inhibition at 1200 g/ha (Digitaria ciliaris [5]) | inhibition at 1200 g/ha (Echinochloa crus-galli [6])

CC(C)[C@@]12C[C@H](OCc3ccccc3Br)[C@@](C)(C[C@H]1Br)O2 [1-1034, (1R,2S,4S,5R)-5-bromo-2-[(2-bromophenyl)methoxy]-1-methyl-4-isopropyl-7-oxabicyclo[2.2.1]heptane]
≥ 80%: pest or weed control at 1200 g/ha [1] | inhibition at 1200 g/ha [2] | inhibition at 1200 g/ha (Digitaria ciliaris [3]) | inhibition at 1200 g/ha (Echinochloa crus-galli [4]) | inhibition at 1200 g/ha (Digitaria ciliaris [5]) | inhibition at 1200 g/ha (Echinochloa crus-galli [6])

CC(C)[C@]12C[C@@H](OCc3ccccc3F)[C@](C)(C[C@H]1C)O2 (racemic) [1-1597, (1SR,2RS,4RS,5RS)-2-[(2-fluorophenyl)methoxy]-1,5-dimethyl-4-isopropyl-7-oxabicyclo[2.2.1]heptane]
≥ 80%: pest or weed control at 1200 g/ha [1] | inhibition at 1200 g/ha [2] | inhibition at 1200 g/ha (Digitaria ciliaris [3]) | inhibition at 1200 g/ha (Echinochloa crus-galli [4]) | inhibition at 1200 g/ha (Digitaria ciliaris [5]) | inhibition at 1200 g/ha (Echinochloa crus-galli [6])

C#CCO[C@@H]1C[C@]2(C(C)C)O[C@@]1(C)C[C@@H]2Br [1-673, (1S,2R,4R,5S)-5-bromo-1-methyl-4-isopropyl-2-prop-2-ynoxy-7-oxabicyclo[2.2.1]heptane]
≥ 80%: pest or weed control at 1200 g/ha [1] | inhibition at 1200 g/ha [2]

COc1cccc(CO[C@@H]2C[C@]3(C(C)C)O[C@@]2(C)CC3=O)c1 [2-347, (1R,4S,5R)-1-isopropyl-5-((3-methoxybenzyl)oxy)-4-methyl-7-oxabicyclo[2.2.1]heptan-2-one]
≥ 80%: pest or weed control at 1200 g/ha [1] | inhibition at 1200 g/ha (Echinochloa crus-galli [4])

Cc1ccc(C2C[C@]3(C)O[C@@]2(C(C)C)C[C@H]3OCc2ccccc2F)cc1 (stereo partly drawn) [1-927, (1S,2R,4R)-2-((2-fluorobenzyl)oxy)-4-isopropyl-1-methyl-5-(p-tolyl)-7-oxabicyclo[2.2.1]heptane]
≥ 80%: inhibition at 1200 g/ha (Digitaria ciliaris [3]) | inhibition at 1200 g/ha (Echinochloa crus-galli [4])

COCO[C@@H]1C[C@]2(C(C)C)O[C@@]1(C)C[C@@H]2Br [1-677, (1S,2R,4R,5S)-5-bromo-2-(methoxymethoxy)-1-methyl-4-isopropyl-7-oxabicyclo[2.2.1]heptane]
≥ 80%: inhibition at 1200 g/ha [2]

CC(C)[C@]12C[C@@H](OCc3ccc4ccccc4c3)[C@](C)(C[C@@H]1Br)O2 [1-716, (1S,2R,4R,5S)-5-bromo-1-methyl-2-(naphthalen-2-ylmethoxy)-4-isopropyl-7-oxabicyclo[2.2.1]heptane]
≥ 80%: pest or weed control at 1200 g/ha [1] | inhibition at 1200 g/ha [2]

CCOC1C[C@]2(C)O[C@@]1(C(C)C)C[C@H]2OCc1ccccc1F (mixture of isomers) [1-916, (1S,2R,4R,SR)-5-ethoxy-2-[(2-fluorophenyl)methoxy]-1-methyl-4-isopropyl-7-oxabicyclo[2.2.1]heptane]
≥ 80%: inhibition at 1200 g/ha (Digitaria ciliaris [5]) | inhibition at 1200 g/ha (Echinochloa crus-galli [6])

C=CCO[C@@H]1C[C@]2(C(C)C)O[C@@]1(C)C[C@@H]2Br [1-671, (1S,2R,4R,5S)-5-bromo-1-methyl-4-isopropyl-2-prop-2-enoxy-7-oxabicyclo[2.2.1]heptane]
≥ 80%: inhibition at 1200 g/ha (Echinochloa crus-galli [6])
